Test systems include CCRF-CEM leukemia; DU-145 prostate; HCT-15 colon; MDA-MB-231 breast; NCI-H522 lung; RXF 393 renal; SK-OV-3 ovarian; SN12C renal; SW-620 colon; UO-31 renal.
What all share (experiment): NCI-60 cell line screen, 48 h

Several values for one entry are separate records, joined by “and”; a condition that tells them apart may be missing. Equal values may be shown once.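 Five concentrations, 48 hours, 96-well plates. GI50 is the concentration that inhibits growth by half. TGI: concentration producing complete growth inhibition.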

On to `CN(NC(=O)CC(=O)NN(C)C(=S)c1ccc(Cl)cc1)C(=S)c1ccc(Cl)cc1`, for which the GI50 is 7.94 µM with CCRF-CEM leukemia; 21.9 µM with DU-145 prostate; 7.72 µM in the assay with HCT-15 colon; 19.8 µM in the assay with MDA-MB-231 breast; 19.1 µM with NCI-H522 lung; 14.7 µM with RXF 393 renal. Moreover, the GI50 is 34.7 µM in the assay on SK-OV-3 ovarian, 18.6 µM with SN12C renal, 29.3 µM with SW-620 colon and 10.4 µM with UO-31 renal. For the same compound, the TGI was more than 100 µM in the assay on CCRF-CEM leukemia; more than 100 µM in the assay with DU-145 prostate; more than 100 µM in the assay with HCT-15 colon; 65.2 µM in the assay with MDA-MB-231 breast; 60.2 µM in the assay on NCI-H522 lung; 65.4 µM in the assay with RXF 393 renal. In addition, the TGI in the assay with SK-OV-3 ovarian was 83.8 µM; in the assay with SN12C renal it was more than 100 µM; in the assay on SW-620 colon, more than 100 µM; in the assay on UO-31 renal, more than 100 µM.

Turning to `C=C=[CH][Sn]([c]1ccccc1)([c]1ccccc1)[c]1ccccc1`, the GI50 in the assay with CCRF-CEM leukemia is 0.79 µM; in the assay with DU-145 prostate, 1.14 µM; in the assay with HCT-15 colon, 1.4 µM; in the assay with MDA-MB-231 breast, 1.79 µM; with NCI-H522 lung, 1.36 µM; with RXF 393 renal, 1.07 µM. Also, the GI50 in the assay with SK-OV-3 ovarian is 2.15 µM; with SN12C renal it was 1.68 µM; in the assay on SW-620 colon, 0.821 µM; with UO-31 renal, 1.44 µM. Further, the TGI in the assay on CCRF-CEM leukemia was determined as 3.4 µM; with DU-145 prostate, 2.42 µM; in the assay on HCT-15 colon, 2.9 µM; with MDA-MB-231 breast, 3.36 µM; with NCI-H522 lung, 2.85 µM; in the assay with RXF 393 renal, 2.28 µM. Moreover, the TGI came out at 4.73 µM in the assay with SK-OV-3 ovarian, 3.19 µM in the assay with SN12C renal, 2.17 µM in the assay with SW-620 colon and 3.18 µM in the assay with UO-31 renal.

For `C[C@@H]1CN2[C@H]3[C@@H]1CC[C@]31CCC(=O)O[C@]1(C)[C@@H]1CC[C@H]3CCC=C3[C@@H]12`, the GI50 in the assay with CCRF-CEM leukemia, in the assay with DU-145 prostate, in the assay with HCT-15 colon, with MDA-MB-231 breast, with NCI-H522 lung and in the assay on RXF 393 renal was more than 70 µM throughout. In addition, the GI50 in the assay on SK-OV-3 ovarian is more than 70 µM; in the assay with SN12C renal, more than 70 µM; in the assay with SW-620 colon, more than 70 µM; in the assay on UO-31 renal, 43.5 µM. Besides, the TGI in the assay on CCRF-CEM leukemia, in the assay on DU-145 prostate, with HCT-15 colon, in the assay with MDA-MB-231 breast, in the assay on NCI-H522 lung and with RXF 393 renal was more than 70 µM in each case. Besides, the TGI in the assay with SK-OV-3 ovarian, with SN12C renal, in the assay with SW-620 colon and in the assay with UO-31 renal was more than 70 µM each time.

As to `CCNCCNc1cc(-c2cccc(C(F)(F)F)c2)c(C#N)c2nc3ccccc3n12`, the GI50 with CCRF-CEM leukemia is 0.29 µM; in the assay on DU-145 prostate, 1.47 µM; in the assay on HCT-15 colon, 0.708 µM; in the assay with MDA-MB-231 breast, 1.67 µM; in the assay on NCI-H522 lung, 1.86 µM; in the assay with RXF 393 renal, 1.49 µM. Further, the GI50 is 2 µM in the assay on SK-OV-3 ovarian, 1.74 µM in the assay with SN12C renal, 0.39 µM in the assay on SW-620 colon and 0.603 µM in the assay with UO-31 renal. Further, the TGI stood at 0.798 µM in the assay on CCRF-CEM leukemia; 2.83 µM in the assay on DU-145 prostate; 2.12 µM in the assay with HCT-15 colon; 3.29 µM with MDA-MB-231 breast; 3.46 µM in the assay on NCI-H522 lung; 3.1 µM in the assay with RXF 393 renal. The TGI in the assay with SK-OV-3 ovarian was determined as 3.49 µM; in the assay with SN12C renal, 3.37 µM; with SW-620 colon, 1.51 µM; in the assay with UO-31 renal, 2.07 µM.

`CC[C@@]1(OC(=O)CN)C(=O)OCc2c1cc1n(c2=O)Cc2cc3c(N)c4c(cc3nc2-1)OCO4`: the GI50 in the assay on CCRF-CEM leukemia is less than 0.0001 µM; in the assay with DU-145 prostate it was less than 0.0001 µM; in the assay on HCT-15 colon it was 0.0409 µM and 0.147 µM; with MDA-MB-231 breast, 0.0873 µM and 0.3 µM; in the assay with NCI-H522 lung, 0.00115 µM; in the assay with RXF 393 renal, 0.00466 µM. The GI50 with SK-OV-3 ovarian is 0.00015 µM; in the assay on SN12C renal, less than 0.0001 µM; in the assay on SW-620 colon it was 0.00243 µM; with UO-31 renal it was less than 0.0001 µM. The TGI was 0.551 µM in the assay on CCRF-CEM leukemia; more than 100 µM in the assay with HCT-15 colon; more than 100 µM in the assay with MDA-MB-231 breast; 0.146 µM in the assay with NCI-H522 lung; 0.158 µM with RXF 393 renal; 0.148 µM in the assay on SK-OV-3 ovarian. Also, in the assay with SW-620 colon, the TGI was more than 100 µM.

For `CSc1ccc(C2=NN(C(=O)c3ccc(N)cc3)C(c3ccc(F)cc3)C2)cc1` (configuration not stated), the GI50 was 0.314 µM with CCRF-CEM leukemia; 10.6 µM with DU-145 prostate; 3.28 µM with HCT-15 colon; 12.6 µM in the assay on MDA-MB-231 breast; 13.8 µM in the assay with NCI-H522 lung; 17.7 µM with RXF 393 renal. Moreover, the GI50 with SK-OV-3 ovarian is 16.2 µM; in the assay on SN12C renal, 2.49 µM; with SW-620 colon, 6.27 µM; with UO-31 renal it was 10.6 µM. Moreover, the TGI with CCRF-CEM leukemia came to 1.72 µM; in the assay on DU-145 prostate it was 24 µM; with HCT-15 colon, 14.4 µM; in the assay with MDA-MB-231 breast it was 30.6 µM; with NCI-H522 lung, 30.9 µM; in the assay on RXF 393 renal, 34.1 µM. The TGI amounted to 31.7 µM in the assay on SK-OV-3 ovarian, 10.2 µM with SN12C renal, 26.3 µM in the assay with SW-620 colon and 24 µM in the assay with UO-31 renal.

As to `CCCCCc1c(C)[nH]c(/C=c2\[nH]/c(=C3/C=c4ccccc4=N3)cc2OC)c1C`, the GI50 is 0.0435 µM with CCRF-CEM leukemia; 0.0911 µM in the assay on DU-145 prostate; 0.0337 µM with HCT-15 colon; 0.0266 µM with MDA-MB-231 breast; 0.101 µM with NCI-H522 lung; 0.086 µM with RXF 393 renal. The GI50 was 0.449 µM in the assay on SK-OV-3 ovarian, 0.0926 µM in the assay on SN12C renal, 0.0341 µM with SW-620 colon and 0.0882 µM with UO-31 renal. Further, the TGI came to 6.03 µM in the assay with CCRF-CEM leukemia; 16.4 µM in the assay on DU-145 prostate; 1.31 µM in the assay on HCT-15 colon; 0.232 µM in the assay with MDA-MB-231 breast; 1.7 µM in the assay with NCI-H522 lung; 0.755 µM with RXF 393 renal. Besides, the TGI was found to be 4.55 µM in the assay on SK-OV-3 ovarian, 1.88 µM in the assay on SN12C renal, 2.84 µM in the assay on SW-620 colon and 0.329 µM in the assay on UO-31 renal.

Values taken from PubChem BioAssay (NCI).
